Test results from the supplement of paper PMC10307832.

Assays:
Assay in all cases: relative viability (nuclei count vs DMSO), 5 days (fraction); higher = more cells survive
[1] = compound: CC(C)C[C@H](NC(=O)[C@H](CCc1ccccc1)NC(=O)CN1CCOCC1)C(=O)N[C@@H](Cc1ccccc1)C(=O)N[C@@H](CC(C)C)C(=O)[C@@]1(C)CO1 [Carfilzomib] + C[C@@H](Oc1cc(-c2cnn(C3CCNCC3)c2)cnc1N)c1c(Cl)ccc(F)c1Cl [Crizotinib] (partner 1 µM)
Outline: (§1)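 Relative viability was taken as the ratio of nuclei in treated wells to nuclei in vehicle wells. Lung cancer cell lines in 1536-well plates received compounds by pin tool one day after seeding, either one drug alone or a fixed anchor-drug dose plus five library-drug doses (not always all listed) in √10 steps. Nuclei were counted on 4× images after 5 days of treatment, and values are medians of duplicate plates.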

[2] = compound: C[C@@H](Oc1cc(-c2cnn(C3CCNCC3)c2)cnc1N)c1c(Cl)ccc(F)c1Cl [Crizotinib] + NC(=O)Nc1cc(-c2cccc(F)c2)sc1C(=O)N[C@H]1CCCNC1 [AZD7762] (partner 0.2 µM)
Outline: as §1

[3] = compound: O=C(c1cc(Cc2n[nH]c(=O)c3ccccc23)ccc1F)N1CCN(C(=O)C2CC2)CC1 [Olaparib] + C[C@@H](Oc1cc(-c2cnn(C3CCNCC3)c2)cnc1N)c1c(Cl)ccc(F)c1Cl [Crizotinib] (partner 1 µM)
Outline: as §1

[4] = compound: O=C(c1cc(Cc2n[nH]c(=O)c3ccccc23)ccc1F)N1CCN(C(=O)C2CC2)CC1 [Olaparib] + C[C@]1(O)C[C@@H](c2nc(-c3ccc4ccc(-c5ccccc5)nc4c3)c3c(N)nccn32)C1 [Linsitinib] (partner 1 µM)
Outline: as §1

NCI-H1944
relative viability ([1]; first compound 0.001 µM): 1.02 | relative viability ([1]; first compound 0.003162 µM): 1.2 | relative viability ([1]; first compound 0.01 µM): 1.09 | relative viability ([1]; first compound 0.03162 µM): 1.07 | relative viability ([1]; first compound 0.1 µM): 0.302 | relative viability ([2]; first compound 0.01 µM): 0.449 | relative viability ([2]; first compound 0.03162 µM): 0.566 | relative viability ([2]; first compound 0.1 µM): 0.53 | relative viability ([2]; first compound 0.3162 µM): 0.446 | relative viability ([2]; first compound 1 µM): 0.489 | relative viability ([3]; first compound 0.08 µM): 1.06 | relative viability ([3]; first compound 0.253 µM): 0.926 | relative viability ([3]; first compound 2.53 µM): 0.814 | relative viability ([3]; first compound 8 µM): 0.676 | relative viability ([4]; first compound 0.08 µM): 1.22 | relative viability ([4]; first compound 0.253 µM): 1.05 | relative viability ([4]; first compound 2.53 µM): 1.12 | relative viability ([4]; first compound 8 µM): 0.876

NCI-H1975
relative viability ([1]; first compound 0.001 µM): 0.944 | relative viability ([1]; first compound 0.003162 µM): 0.951 | relative viability ([1]; first compound 0.01 µM): 0.536 | relative viability ([1]; first compound 0.03162 µM): 0.116 | relative viability ([1]; first compound 0.1 µM): 0.131 | relative viability ([2]; first compound 0.01 µM): 0.641 | relative viability ([2]; first compound 0.03162 µM): 0.784 | relative viability ([2]; first compound 0.1 µM): 0.771 | relative viability ([2]; first compound 0.3162 µM): 0.684 | relative viability ([2]; first compound 1 µM): 0.636 | relative viability ([3]; first compound 0.08 µM): 1.04 | relative viability ([3]; first compound 0.253 µM): 0.906 | relative viability ([3]; first compound 2.53 µM): 0.945 | relative viability ([3]; first compound 8 µM): 0.916 | relative viability ([4]; first compound 0.08 µM): 1.02 | relative viability ([4]; first compound 0.253 µM): 0.95 | relative viability ([4]; first compound 2.53 µM): 0.9 | relative viability ([4]; first compound 8 µM): 0.895

NCI-H1993
relative viability ([1]; first compound 0.001 µM): 0.871 | relative viability ([1]; first compound 0.003162 µM): 0.97 | relative viability ([1]; first compound 0.01 µM): 1.12 | relative viability ([1]; first compound 0.03162 µM): 0.807 | relative viability ([1]; first compound 0.1 µM): 0.473 | relative viability ([2]; first compound 0.01 µM): 0.702 | relative viability ([2]; first compound 0.03162 µM): 0.75 | relative viability ([2]; first compound 0.3162 µM): 0.379 | relative viability ([2]; first compound 1 µM): 0.527 | relative viability ([3]; first compound 0.08 µM): 0.967 | relative viability ([3]; first compound 0.253 µM): 0.954 | relative viability ([3]; first compound 2.53 µM): 0.987 | relative viability ([3]; first compound 8 µM): 1.07 | relative viability ([4]; first compound 0.08 µM): 0.745 | relative viability ([4]; first compound 0.253 µM): 0.749 | relative viability ([4]; first compound 2.53 µM): 0.831 | relative viability ([4]; first compound 8 µM): 0.78

NCI-H2085
relative viability ([1]; first compound 0.001 µM): 0.83 | relative viability ([1]; first compound 0.003162 µM): 0.769 | relative viability ([1]; first compound 0.01 µM): 0.662 | relative viability ([1]; first compound 0.03162 µM): 0.368 | relative viability ([1]; first compound 0.1 µM): 0.225 | relative viability ([2]; first compound 0.01 µM): 0.961 | relative viability ([2]; first compound 0.03162 µM): 1.01 | relative viability ([2]; first compound 0.1 µM): 0.986 | relative viability ([2]; first compound 0.3162 µM): 0.737 | relative viability ([2]; first compound 1 µM): 1.02 | relative viability ([3]; first compound 0.08 µM): 0.911 | relative viability ([3]; first compound 0.253 µM): 0.657 | relative viability ([3]; first compound 2.53 µM): 0.74 | relative viability ([3]; first compound 8 µM): 0.77 | relative viability ([4]; first compound 0.08 µM): 0.982 | relative viability ([4]; first compound 0.253 µM): 0.868 | relative viability ([4]; first compound 2.53 µM): 0.819 | relative viability ([4]; first compound 8 µM): 0.677

NCI-H2087
relative viability ([1]; first compound 0.001 µM): 0.876 | relative viability ([1]; first compound 0.003162 µM): 1.03 | relative viability ([1]; first compound 0.01 µM): 0.827 | relative viability ([1]; first compound 0.03162 µM): 0.0787 | relative viability ([1]; first compound 0.1 µM): 0.091 | relative viability ([2]; first compound 0.01 µM): 1.39 | relative viability ([2]; first compound 0.03162 µM): 1.49 | relative viability ([2]; first compound 0.1 µM): 1.24 | relative viability ([2]; first compound 0.3162 µM): 1.24 | relative viability ([2]; first compound 1 µM): 1.48 | relative viability ([3]; first compound 0.08 µM): 1.02 | relative viability ([3]; first compound 0.253 µM): 0.738 | relative viability ([3]; first compound 2.53 µM): 0.78 | relative viability ([3]; first compound 8 µM): 0.688 | relative viability ([4]; first compound 0.08 µM): 0.984 | relative viability ([4]; first compound 0.253 µM): 0.912 | relative viability ([4]; first compound 2.53 µM): 0.83 | relative viability ([4]; first compound 8 µM): 0.685

NCI-H2126
relative viability ([1]; first compound 0.001 µM): 0.98 | relative viability ([1]; first compound 0.003162 µM): 1.07 | relative viability ([1]; first compound 0.01 µM): 0.989 | relative viability ([1]; first compound 0.03162 µM): 1.01 | relative viability ([1]; first compound 0.1 µM): 0.707 | relative viability ([2]; first compound 0.01 µM): 0.928 | relative viability ([2]; first compound 0.03162 µM): 1.09 | relative viability ([2]; first compound 0.1 µM): 1.02 | relative viability ([2]; first compound 0.3162 µM): 0.903 | relative viability ([2]; first compound 1 µM): 1.04 | relative viability ([3]; first compound 0.08 µM): 1.12 | relative viability ([3]; first compound 0.253 µM): 0.967 | relative viability ([3]; first compound 2.53 µM): 0.957 | relative viability ([3]; first compound 8 µM): 0.969 | relative viability ([4]; first compound 0.08 µM): 0.808 | relative viability ([4]; first compound 0.253 µM): 0.641 | relative viability ([4]; first compound 2.53 µM): 0.698 | relative viability ([4]; first compound 8 µM): 0.7

NCI-H2347
relative viability ([1]; first compound 0.001 µM): 0.798 | relative viability ([1]; first compound 0.003162 µM): 0.756 | relative viability ([1]; first compound 0.01 µM): 0.596 | relative viability ([1]; first compound 0.03162 µM): 0.449 | relative viability ([1]; first compound 0.1 µM): 0.35 | relative viability ([2]; first compound 0.01 µM): 0.773 | relative viability ([2]; first compound 0.03162 µM): 0.663 | relative viability ([2]; first compound 0.1 µM): 0.772 | relative viability ([2]; first compound 0.3162 µM): 0.582 | relative viability ([2]; first compound 1 µM): 0.884 | relative viability ([3]; first compound 0.08 µM): 0.672 | relative viability ([3]; first compound 0.253 µM): 0.657 | relative viability ([3]; first compound 2.53 µM): 0.705 | relative viability ([3]; first compound 8 µM): 0.622 | relative viability ([4]; first compound 0.08 µM): 1.03 | relative viability ([4]; first compound 0.253 µM): 0.879 | relative viability ([4]; first compound 2.53 µM): 0.823 | relative viability ([4]; first compound 8 µM): 0.816
